The values below come from patent publication US20240262819A1, “NOVEL COMPOUNDS HAVING INHIBITORY ACTIVITY AGAINST GLUCOSYLCERAMIDE SYNTHASE OR PHARMACEUTICALLY ACCEPTABLE SALT THEREOF, PROCESSES FOR PREPARING THE SAME, AND PHARMACEUTICAL COMPOSITIONS COMPRISING THE SAME” (YUHAN CORPORATION, priority 2021, published 2024).

Like-named read-outs stand apart in the source and are kept apart here.

Data set [1] relates to GM1 production in Jurkat cells. Kind of data set: cells. Format: cell-based. The note with it: Homo sapiens, Jurkat, 72 h.
Data set [2] in a line: Evaluation of blood-brain barrier (BBB) permeability through oral administration. Format: in vivo, mice. The note with it: mouse, in vivo, mice, oral, dose 30 mg/kg, 4 hr; for Kp at 4 h: read-out: Mean brain-plasma drug ratio at 4 hr. In a few lines: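 Mice dosed orally at 10 or 30 mg/10 ml/kg, suspended in 0.5% methyl cellulose with 0.2% Tween 80. Plasma and forebrain homogenate taken 4 hours post-dose, drug measured by LC-MS/MS; brain/plasma ratio calculated from tissue concentrations.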

For data set [3], the target named is glucosylceramide synthase (GCS) (Homo sapiens (Human), UniProt Q16739). Kind of data set: Evaluation of inhibitory activities against GCS (A549 cell lysate, NBD C6-ceramide, HPLC). The class given is biochemical. In a few lines: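 GCS activity in A549 cell lysate (50 mM HEPES, pH 7.3) with NBD C6-ceramide, reacted 90 min at 37 °C. Lipids were chloroform/methanol-extracted and separated by normal-phase HPLC with fluorescence detection (ex 470/em 530 nm). GlcCer fraction of peak area was normalized between DMSO and ibiglustat, and IC50 obtained by curve fitting.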
Sequence of glucosylceramide synthase (GCS) (Q16739 whole entry): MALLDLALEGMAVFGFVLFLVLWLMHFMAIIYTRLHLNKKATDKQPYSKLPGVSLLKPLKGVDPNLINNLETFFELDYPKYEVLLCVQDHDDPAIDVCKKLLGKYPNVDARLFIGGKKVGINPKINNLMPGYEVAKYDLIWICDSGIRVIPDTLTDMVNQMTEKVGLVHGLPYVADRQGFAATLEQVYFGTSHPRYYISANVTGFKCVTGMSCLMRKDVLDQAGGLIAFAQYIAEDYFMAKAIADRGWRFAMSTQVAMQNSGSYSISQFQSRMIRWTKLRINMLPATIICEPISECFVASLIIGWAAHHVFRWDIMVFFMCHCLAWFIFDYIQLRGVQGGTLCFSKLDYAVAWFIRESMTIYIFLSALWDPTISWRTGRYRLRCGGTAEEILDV

The mark [4] stands for this setting: read-out: Mean drug concentrations in brain tissue at 4 hr.
Setting [5] is: read-out: Mean drug concentrations in plasma at 4 hr.

Turning to `COc1c(C)cc(-c2cc3c(cc2F)[C@H](NC(=O)O[C@@H]2CN4CCC2CC4)C(C)(C)CC3)cc1C` [Example 180, (S)-quinuclidin-3-yl((R)-7-fluoro-6-(4-methoxy-3,5-dimethylphenyl)-2,2-dimethyl-1,2,3,4-tetrahydronaphthalen-1-yl)carbamate], the IC50 (commonly the point on the concentration scale where inhibition reaches its midpoint) in data set [1] is 8 nM; in data set [3], 1.32 nM. The Kp at 4 h in data set [2] was 1.34. The concentration at 4 h in data set [2] (setting [4]) amounted to 1510 ng/g; in data set [2] (setting [5]), 1140 ng/mL.
The like results for `COc1ccc(-c2cc3c(cc2F)[C@H](NC(=O)O[C@@H]2CN4CCC2CC4)C(C)(C)CC3)c(F)c1` [Example 194, (S)-quinuclidin-3-yl((R)-7-fluoro-6-(2-fluoro-4-methoxyphenyl)-2,2-dimethyl-1,2,3,4-tetrahydronaphthalen-1-yl)carbamate] were, in that order, 4.6 nM, 0.41 nM, 1.67, 2100 ng/g and 1260 ng/mL.
`Cc1cc(OC(C)C)ccc1-c1cc2c(cc1F)[C@H](NC(=O)O[C@@H]1CN3CCC1CC3)C(C)(C)C2` [Example 96, (S)-quinuclidin-3-yl((R)-6-fluoro-5-(4-isopropoxy-2-methylphenyl)-2,2-dimethyl-2,3-dihydro-1H-inden-1-yl)carbamate]: the IC50 in data set [1] stood at 0.76 nM; in data set [3], 0.08 nM. Also, the Kp at 4 h in data set [2] came to 6.24. The concentration at 4 h in data set [2] (setting [4]) was 5360 ng/g; in data set [2] (setting [5]) it was 864 ng/mL.
